Some test systems named below: HT29 colon; MCF7 breast; M14 melanoma; MDA-MB-231 breast; HS 578T breast; UACC-257 melanoma; SF-268 CNS; SK-MEL-2 melanoma; MDA-MB-435; OVCAR-8 ovarian.
Common to all, as to assay: inhibition of tumour cell growth, NCI panel, 48 h

Values joined by “and” are separate entries in the source; they are usually repeats but may differ in a detail not shown here. Equal entries are not always repeated.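 Dose response: 5 concentrations. Exposure: 48 h. Format: 96-well plates. Endpoint: linear interpolation; highest concentration if not reached. Here, GI50 denotes the concentration required for 50% inhibition of growth. TGI denotes the concentration required for complete inhibition of growth.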

As to `COC(=O)[C@]12CC[C@@H](C)[C@H](C)[C@@H]1C1=CC[C@@H]3[C@@]4(C)C[C@@H](OC(C)=O)[C@H](OC(C)=O)[C@@](C)(COC(C)=O)[C@@H]4[C@H](O)C[C@@]3(C)[C@]1(C)CC2`, the GI50 in the assay on HT29 colon was 0.659 µM; with MCF7 breast, 1.57 µM; in the assay with M14 melanoma it was 1.28 µM; in the assay on MDA-MB-231 breast it was 1.91 µM; in the assay on HS 578T breast it was 8.15 µM; in the assay with UACC-257 melanoma it was 2.43 µM. Further, the GI50 with SF-268 CNS is 2.62 µM; with SK-MEL-2 melanoma it was 1.85 µM; in the assay on MDA-MB-435 it was 1.86 µM; in the assay on OVCAR-8 ovarian, 3.15 µM. The TGI was greater than 100 µM in the assay with HT29 colon; 27.9 µM in the assay on MCF7 breast; greater than 100 µM in the assay on M14 melanoma; greater than 100 µM with MDA-MB-231 breast; greater than 100 µM in the assay with HS 578T breast; 8.21 µM in the assay with UACC-257 melanoma. The TGI in the assay on SF-268 CNS, in the assay with SK-MEL-2 melanoma, in the assay with MDA-MB-435 and in the assay on OVCAR-8 ovarian was greater than 100 µM each time.

For the compound `CSc1ccc(-c2cn3ccsc3n2)cc1`, the GI50 in the assay with HT29 colon was 33.3 µM; in the assay with MCF7 breast, 1.33 µM; with M14 melanoma, 18.1 µM; with MDA-MB-231 breast, 31.8 µM; in the assay with HS 578T breast it was 9.5 µM; in the assay with UACC-257 melanoma it was 28.7 µM. Also, the GI50 in the assay on SF-268 CNS is 7.54 µM; with SK-MEL-2 melanoma it was 4 µM; in the assay on MDA-MB-435, 12.6 µM; in the assay with OVCAR-8 ovarian, 15.8 µM. For the same compound, the TGI with HT29 colon was greater than 100 µM; with MCF7 breast, greater than 100 µM; in the assay with M14 melanoma, greater than 100 µM; with MDA-MB-231 breast it was greater than 100 µM; with HS 578T breast it was greater than 65.7 µM; in the assay with UACC-257 melanoma, greater than 100 µM. In addition, the TGI is greater than 100 µM in the assay with SF-268 CNS, greater than 92.9 µM in the assay on SK-MEL-2 melanoma, greater than 100 µM in the assay with MDA-MB-435 and greater than 100 µM in the assay with OVCAR-8 ovarian.

Turning to `COc1cc2c(c3oc4c(O)cccc4c(=O)c13)CC(C(C)(O)CCl)O2` (stereo not drawn), the TGI is 15.9 µM with HT29 colon; 12.9 µM in the assay on MCF7 breast; 1.27 µM in the assay with M14 melanoma; 5.6 µM in the assay with MDA-MB-231 breast; 6.89 µM with HS 578T breast; 6.79 µM with UACC-257 melanoma. Further, the TGI in the assay on SF-268 CNS is 3.33 µM; in the assay with SK-MEL-2 melanoma it was 3.38 µM; in the assay with MDA-MB-435 it was 1.55 µM; in the assay with OVCAR-8 ovarian, 7.94 µM.

For the compound `COc1ccc(/C(=C(\c2ccccc2)[N+](=O)[O-])c2ccc(OCCN3CCCC3)cc2)cc1`, the GI50 is 0.301 µM in the assay on HT29 colon; 0.194 µM with MCF7 breast; 1.82 µM in the assay with M14 melanoma; 2.76 µM in the assay with MDA-MB-231 breast; 2.32 µM in the assay on HS 578T breast; 2.04 µM in the assay on UACC-257 melanoma. For the same compound, the GI50 in the assay on SF-268 CNS was 5.99 µM; with SK-MEL-2 melanoma it was 2.06 µM; in the assay with MDA-MB-435, 2.85 µM; in the assay with OVCAR-8 ovarian it was 11.8 µM. In addition, the TGI with HT29 colon came to 1.82 µM; in the assay on MCF7 breast, 3.63 µM; in the assay with M14 melanoma, 3.47 µM; in the assay on MDA-MB-231 breast it was 6.98 µM; in the assay on HS 578T breast, 10.9 µM; in the assay on UACC-257 melanoma it was 4.64 µM. Besides, the TGI with SF-268 CNS was determined as 20 µM; in the assay with SK-MEL-2 melanoma it was 5.06 µM; with MDA-MB-435, 10.5 µM; in the assay on OVCAR-8 ovarian, 31.7 µM.

In the case of `O=C(NOCCO)c1ccc2cncn2c1Nc1ccc(I)cc1F`, the GI50 was 0.00307 µM and < 0.01 µM with HT29 colon; > 10 µM and 26.2 µM in the assay on MCF7 breast; 0.00286 µM and < 0.01 µM in the assay with M14 melanoma; 0.0343 µM and 0.0283 µM with MDA-MB-231 breast; > 10 µM and 60.6 µM with HS 578T breast; 0.00234 µM and < 0.01 µM in the assay with UACC-257 melanoma. Also, the GI50 was > 10 µM and 22 µM in the assay with SF-268 CNS; 0.00127 µM and < 0.01 µM with SK-MEL-2 melanoma; 0.00756 µM and < 0.01 µM in the assay with MDA-MB-435; > 10 µM and 19.4 µM in the assay on OVCAR-8 ovarian. In addition, the TGI in the assay with HT29 colon is greater than 100 µM; with MCF7 breast, greater than 100 µM; with MDA-MB-231 breast it was greater than 100 µM; in the assay on HS 578T breast it was greater than 100 µM; with UACC-257 melanoma, 0.0127 µM and < 0.0141 µM; in the assay with SF-268 CNS, greater than 100 µM. The TGI is 0.00636 µM and < 0.01 µM in the assay on SK-MEL-2 melanoma; greater than 100 µM with MDA-MB-435; greater than 100 µM in the assay on OVCAR-8 ovarian.

For the compound `COc1cc(OC)c(/C=C/S(=O)(=O)Cc2ccc(OC)c(N)n2)c(OC)c1`, the GI50 was less than 0.0174 µM with HT29 colon; less than 0.01 µM with MCF7 breast; less than 0.01 µM in the assay on M14 melanoma; less than 0.0248 µM in the assay on MDA-MB-231 breast; less than 0.01 µM with HS 578T breast; greater than 100 µM in the assay on UACC-257 melanoma. The GI50 in the assay with SF-268 CNS was less than 0.01 µM; in the assay with MDA-MB-435, less than 0.01 µM; in the assay with OVCAR-8 ovarian, less than 0.018 µM. Also, the TGI in the assay with HT29 colon is greater than 54.8 µM; in the assay with MCF7 breast it was greater than 100 µM; in the assay on M14 melanoma, greater than 100 µM; in the assay on MDA-MB-231 breast, greater than 100 µM; in the assay on HS 578T breast it was greater than 100 µM; with UACC-257 melanoma it was greater than 100 µM. The TGI in the assay with SF-268 CNS was greater than 100 µM; in the assay with SK-MEL-2 melanoma, greater than 100 µM; in the assay with MDA-MB-435, less than 0.01 µM; in the assay on OVCAR-8 ovarian it was greater than 100 µM.

`NS(=O)(=O)c1cccc(Nc2cc(-c3ccc(F)cc3)[nH]n2)c1`: the GI50 in the assay on HT29 colon is greater than 25 µM; in the assay on MCF7 breast, 20.4 µM; in the assay on M14 melanoma, greater than 25 µM; with MDA-MB-231 breast, greater than 25 µM; in the assay with HS 578T breast, greater than 20.8 µM; in the assay on UACC-257 melanoma, greater than 25 µM. For the same compound, the GI50 is 18.6 µM with SF-268 CNS, 16.1 µM in the assay on SK-MEL-2 melanoma, greater than 25 µM in the assay with MDA-MB-435 and 19.4 µM in the assay on OVCAR-8 ovarian. Also, the TGI with HT29 colon, in the assay on MCF7 breast, in the assay with M14 melanoma, in the assay on MDA-MB-231 breast, in the assay on HS 578T breast and in the assay on UACC-257 melanoma was greater than 25 µM throughout. The TGI in the assay with SF-268 CNS, in the assay with SK-MEL-2 melanoma, in the assay on MDA-MB-435 and with OVCAR-8 ovarian was greater than 25 µM throughout.

Consider `CCOC(=O)Nc1cc2c(c(N)n1)N=C(c1ccc(Cl)cc1Cl)CN2`, for which the TGI with HT29 colon came to 0.641 µM; in the assay with MCF7 breast it was 21.7 µM; in the assay with M14 melanoma, 43.4 µM; in the assay on MDA-MB-231 breast it was 16.2 µM; with HS 578T breast, 1.41 µM; in the assay on UACC-257 melanoma, 90.6 µM. The TGI with SF-268 CNS was 25.5 µM; in the assay with SK-MEL-2 melanoma it was 19.7 µM; in the assay on MDA-MB-435, less than 0.0239 µM; with OVCAR-8 ovarian, 37.2 µM.

These data come from PubChem BioAssay (NCI).
